Measurements taken from patent US9750817B2, “Amphotericin B derivatives” (priority 2015, dated 2017).
≈ marks a conversion by molar mass, not a printed value.

Tests used:
A. fumigatus (Af 293) = assay: MIC of compound 6, AMB and FMOC-6; assay type: cell-based, Aspergillus fumigatus
Description: (§1) Efficacy was evaluated by measuring minimum inhibitory concentration (MIC) and minimum fungicidal concentration (MFC) values for fungal isolates. Testing of isolates was performed according to the Clinical & Laboratory Standards Institute (CLSI) method. (CLSI. 2008. M27-A3 Reference method for broth dilution antifungal susceptibility testing of yeasts; Approved Standard—3rd edition. Clinical and Laboratory Standards Institute, Wayne). RPMI MOPS media was used throughout the experiment as growth and dilution media. Spores and yeast cells were harvested in 0.05% Tween from 24-48 h and cultures were grown in rich yeast extract-agar-glucose (YAG) medium (composed of: 0.5% w/v yeast extract, 1% w/v glucose, 10 millimolar (mM) MgCl2, supplemented with 0.1% v/v trace elements solution, and 0.2% v/v vitamin mix). The spores and the yeast cells were counted and diluted to a final concentration of 2.5×10^4 per ml. A stock solution of 5 mg/ml was prepared in dimethylsulfoxide for free AMB. Compounds 4 and 6 were prepared in sterile saline. Double dilutions of each drug were performed in 100 μL volume of RPMI-MOPS in 96 well plates beginning with a final concentration of 32 micrograms (μg)/well of each drug to 0.06 μg/well. 2500 spores or yeast cells were added to each well. Results were recorded 48 h post incubation at 37° C. […] The MFC was defined as the lowest drug concentration that yielded three or fewer colonies (i.e. 99% of the inoculum was killed).
(§2) In addition, the amine protected equivalent of compound 6 in which the amine of compound 6 was protected with an FMOC group was tested (designated FMOC-6) to determine MIC versus AMB and versus compound 6 against A. fumigatus (Af 293) and C. albicans (CBS562).

C. albicans (CBS562) = assay: MIC of compound 6, AMB and FMOC-6; assay type: cell-based, Candida albicans
Description: as §1, §2

ICR mice = assay: In vivo toxicity, intravenous injection; conditions: for LD50 / Maximum Dose: tail vein
Description: In-vivo toxicity was determined in mice using 6 week old female ICR mice (n=6). Different concentrations of each formulation were injected intravenously through the tail vein, 0.2 ml per mouse, until death was observed. PAD-AMB conjugates were prepared in sterile saline solution and were filtered through 0.45-micrometer pore-size cellulose acetate sterile filters prior to injection.

[1] = Solubility in double-distilled water; assay type: physicochemical; conditions: double-distilled water
Description: Physical characteristics of AMB derivatives and of AMB were tested, including solubility.

human erythrocytes = assay: In-vitro toxicity (hemolysis) study; assay type: cell-based; conditions: 6 μg/ml; for toxicity to erythrocytes: assay conditions of FIG. 4B
Description: Reference is made to FIG. 4B. Fresh human erythrocytes were diluted 1:100 in PBS, and incubated in an Eppendorf tube while rotating slowly in the presence of 6 μg/ml of each of compound 4 and compound 6. Amphotericin B was used as positive control. Sterile double distilled water served as a control for 100% hemolysis. After 1, 3, 5 and 21 h, 20 μl of each test tube were removed and diluted in 180 μl PBS. Samples were centrifuged for 10 minutes at 1200 RPM and the optical density of the supernatant was measured at 425 nm.

[2] = test system: mouse embryonic fibroblasts (MEFs); assay: MTT viability assay in mouse embryonic fibroblasts; assay type: cell-based
Description: Reference is made to FIG. 4C. Mouse embryonic fibroblasts were used in this example. 1×10^4 mouse embryonic fibroblasts (MEFs) per well were seeded in 96-well plates and incubated at 37° C. After 24 h the media was replaced with 100 μl culture medium containing serial dilutions of AMB, compounds 4 or 6, or left untreated. After 24 h, the media was replaced by fresh media (100 μl per well) containing 1 mg/ml MTT (3-(4,5-Dimethylthiazol-2-yl)-2,5-Diphenyltetrazolium Bromide, ((Biological Industries, Israel)) reagent and the cells were incubated for an additional 3 h at 37° C. MTT-formazan crystals were dissolved by the addition of 100 μl per well of extraction solution (20% SDS, 50% N,N-dimethyl formamide (DMF), pH=4.7) and incubation for 16 h at 37° C. Absorbance at 570 nm was recorded on a Biotek Synergy HT plate reader.
The results were expressed as the percentage of living cells relative to the untreated control and are depicted in FIG. 4C. The inhibition concentration (IC50) value is the concentration of the compound which inhibited cell growth by 50%.

C. albicans CBS 562 [3] = assay: Experimental systemic murine candidiasis, survival; assay type: in vivo, mice; conditions: four daily injections, 24 days
Description: Reference is Made to FIG. 5. Efficacy of PAD-AMB was Tested on Naïve 6 Week Old female ICR mice (n=20). Experimental systemic murine candidiasis was induced by intravenous inoculation of C. albicans CBS 562 into the tail vein using an inoculum of 5×10^4 cells in 0.2 ml per mouse. Fungal count was determined by microscopic counts on a haemocytometer. Treatment began 24 h after inoculation of C. albicans and consisted of four consecutive daily injections of Compound 6 at a range of 1.75-8.75 mg/kg/day relative to mouse body weight. Control groups included infected untreated mice and mice treated with AMB (1 mg/kg/day body weight). Survival and mouse body weight were monitored for 24 days. Survival for the various mouse groups is shown graphically in FIG. 5.

C. albicans CBS 562 [4] = assay: In-vitro time-kill study; assay type: cell-based, Candida albicans; conditions: 2-fold above the MIC, over 2 hours, 30° C.
Description: In time-kill studies, C. albicans CBS 562 was grown overnight from a single colony in 50 ml of liquid YPD medium (composed of 1% (w/v) yeast extract, Difco, 2% w/v peptone, Difco, and 2% w/v dextrose, Merck) at 30° C. On the next day, the starter was diluted 1:100 in the same medium and grown to an optical density at 600 nanometers (OD600 nm) of 0.5-0.6. Then, cells were counted and diluted to 10^6 cells/ml in YPD. Compound 6 and amphotericin B (AMB) were added at concentrations 2-fold above the MIC determined for this strain (2 and 0.5 μg/ml, respectively) and shaken at 30° C. At different time points (0, 15 min, 30 min, 1 h, 2 h) samples were removed, diluted and plated on YPD agar (2% agar) plates. Colonies were counted after incubation for 24 h at 30° C. Control measurements included untreated C. albicans cells and cells treated with AMB. All time-kill curve studies were conducted in duplicate and in three independent experiments.

| SMILES | MIC (A. fumigatus (Af 293)) | MIC (C. albicans (CBS562)) | LD50 (ICR mice; female ICR mice, intravenous) | Maximum Dose (ICR mice; female ICR mice, intravenous) | outcome at twice the LD50 (ICR mice; mice injected at twice the LD50) | maximum tolerated dose (ICR mice; mouse) | Solubility [1] | hemolysis (human erythrocytes; after 3 h of agitation) | toxicity to erythrocytes (human erythrocytes) | IC50 (concentration which inhibited cell growth by 50%) ([2]; 24 h exposure, MTT) | mice rescued (survival) (C. albicans CBS 562 [3]; 1 mg/kg/day) | time-kill activity (fungal presence) (C. albicans CBS 562 [4]) | mouse LD50 fold higher than AMB (ICR mice; female ICR mice, intravenous) | signs of toxicity at the highest injectable doses (ICR mice; female ICR mice, intravenous) | hemolytic activity (human erythrocytes; after 3 h of agitation) | times less toxic than AMB ([2]; from IC50) | mice rescued (survival) (C. albicans CBS 562 [3]; 3.5 mg/kg) | mice rescued (survival) (C. albicans CBS 562 [3]; 7 mg/kg) |
| --- | --- | --- | --- | --- | --- | --- | --- | --- | --- | --- | --- | --- | --- | --- | --- | --- | --- | --- |
| C[C@@H]1[C@H](O)[C@@H](C)/C=C/C=C/C=C/C=C/C=C/C=C/C=C/[C@H](O[C@@H]2O[C@H](C)[C@@H](O)[C@H](N)[C@@H]2O)C[C@@H]2O[C@](O)(C[C@@H](O)C[C@@H](O)[C@H](O)CC[C@@H](O)C[C@@H](O)CC(=O)O[C@H]1C)C[C@H](O)[C@H]2C(=O)O [AMB, Amphotericin B] | 0.5 µg/mL | 0.25 µg/mL | 1.2 mg/kg | 1.1 mg/kg | die instantaneously | about 1 mg/kg body weight per day | <1 µg/mL | 76% | very toxic | 6.6 µg/mL | 10 of the 12 | reducing the fungal presence | – | – | – | – | – | – |
| COC(=O)C1C(O)CC2(O)CC(O)CC(O)C(O)CCC(O)CC(O)CC(=O)OC(C)C(C)C(O)C(C)C=CC=CC=CC=CC=CC=CC=CC(OC3OC(C)C(O)C(NC(=O)CCOCCOCCOCCOCCOCCOCCOCCOCCN)C3O)CC1O2 (stereo not shown) [Compound 6, amphotericin B amide, methyl ester-PEG(8)-amine] | 2 µg/mL | 2 µg/mL | not reached | 42 mg/kg | – | – | 700 µg/mL (≈ 514 µM) | – | negligible toxicity | – | – | reducing the fungal presence | ≥ 40 fold | did not show any signs of toxicity | only slightly hemolytic | at least 600 times | the same level of efficacy | rescued all of the mice |
